# ChEMBL document CHEMBL1201862, “PubChem BioAssay data set” (2004)
# Activity calls are given as the source filed them.
# Tests used:
# [1] = target: Alkaline phosphatase, placental type (Homo sapiens, UniProt P05187); experiment: human placental alkaline phosphatase inhibition – biochemical, luminescence, confirmation (AID 1512); format: functional
# [2] = target: T1, Alkaline phosphatase, tissue-nonspecific isozyme (Homo sapiens, UniProt P05186); experiment: potency against alkaline phosphatase TNAP – biochemical, luminescent, dose response, SAR follow-up (AID 1056)
# T1 sequence (P05186 whole entry): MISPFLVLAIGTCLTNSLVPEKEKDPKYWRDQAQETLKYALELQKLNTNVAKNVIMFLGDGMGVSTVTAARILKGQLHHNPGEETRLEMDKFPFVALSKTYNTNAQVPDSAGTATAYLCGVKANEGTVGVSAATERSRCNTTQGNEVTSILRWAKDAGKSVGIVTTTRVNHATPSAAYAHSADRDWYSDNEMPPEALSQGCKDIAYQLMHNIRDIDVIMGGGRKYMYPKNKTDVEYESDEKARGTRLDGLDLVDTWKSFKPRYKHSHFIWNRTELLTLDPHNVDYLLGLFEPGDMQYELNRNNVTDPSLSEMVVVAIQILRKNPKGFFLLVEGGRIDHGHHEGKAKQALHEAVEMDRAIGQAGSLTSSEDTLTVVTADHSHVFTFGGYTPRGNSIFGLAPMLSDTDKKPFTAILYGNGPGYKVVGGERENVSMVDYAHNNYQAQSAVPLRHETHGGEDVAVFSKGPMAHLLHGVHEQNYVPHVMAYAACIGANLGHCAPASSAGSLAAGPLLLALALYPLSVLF
# [3] = Intein inhibitors as potential Tuberculosis drugs, a cytotoxicity screen. [Related pubchem assays (depositor defined):AID2221, AID2223, AID434968, AID435010, AID449749, AID449750, AID489010]; format: functional
# [4] = target: T2, Replicative DNA helicase DnaB (Mycobacterium tuberculosis, UniProt P9WMR3); experiment: DnaB intein splicing inhibitors, dose response, biochemical, cell-free fluorescence (AID 449749); format: functional
# T2 sequence (P9WMR3 whole entry): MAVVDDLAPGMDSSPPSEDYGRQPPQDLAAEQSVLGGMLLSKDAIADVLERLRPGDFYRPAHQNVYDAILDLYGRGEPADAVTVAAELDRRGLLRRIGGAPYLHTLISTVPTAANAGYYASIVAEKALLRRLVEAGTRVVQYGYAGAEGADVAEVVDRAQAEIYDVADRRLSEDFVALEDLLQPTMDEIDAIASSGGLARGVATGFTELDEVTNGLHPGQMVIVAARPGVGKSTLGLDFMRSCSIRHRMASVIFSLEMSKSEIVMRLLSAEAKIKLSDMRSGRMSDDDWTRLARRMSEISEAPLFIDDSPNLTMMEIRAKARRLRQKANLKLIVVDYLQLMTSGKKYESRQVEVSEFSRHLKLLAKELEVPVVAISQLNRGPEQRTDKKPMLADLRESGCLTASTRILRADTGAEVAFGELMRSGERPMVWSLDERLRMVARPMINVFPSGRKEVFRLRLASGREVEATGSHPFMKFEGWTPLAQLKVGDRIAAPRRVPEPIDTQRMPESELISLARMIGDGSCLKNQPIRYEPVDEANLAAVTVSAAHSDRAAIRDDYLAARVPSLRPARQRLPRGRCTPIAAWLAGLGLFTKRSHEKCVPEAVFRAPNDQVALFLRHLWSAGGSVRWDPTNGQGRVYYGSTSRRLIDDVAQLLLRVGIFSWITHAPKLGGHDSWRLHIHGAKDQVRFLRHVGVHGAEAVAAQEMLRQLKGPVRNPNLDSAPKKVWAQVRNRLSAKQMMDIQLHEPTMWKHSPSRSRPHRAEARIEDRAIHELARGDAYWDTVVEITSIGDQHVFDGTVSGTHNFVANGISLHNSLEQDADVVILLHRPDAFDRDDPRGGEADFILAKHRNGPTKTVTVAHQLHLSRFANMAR
# [5] = target: Heat shock protein HSP 90-alpha (Homo sapiens, UniProt P07900); format: functional, organism-based
# Protein RecA = target: T3, Protein RecA (Mycobacterium tuberculosis, UniProt P9WHJ3); experiment: Fluorescence Cell-Free Homogeneous Dose Retest to Identify Inhibitors of RecA-Intein Splicing Activity. [Related pubchem assays (depositor defined):AID2097, AID2223, AID489010, AID492950]; format: functional
# T3 sequence (P9WHJ3 whole entry): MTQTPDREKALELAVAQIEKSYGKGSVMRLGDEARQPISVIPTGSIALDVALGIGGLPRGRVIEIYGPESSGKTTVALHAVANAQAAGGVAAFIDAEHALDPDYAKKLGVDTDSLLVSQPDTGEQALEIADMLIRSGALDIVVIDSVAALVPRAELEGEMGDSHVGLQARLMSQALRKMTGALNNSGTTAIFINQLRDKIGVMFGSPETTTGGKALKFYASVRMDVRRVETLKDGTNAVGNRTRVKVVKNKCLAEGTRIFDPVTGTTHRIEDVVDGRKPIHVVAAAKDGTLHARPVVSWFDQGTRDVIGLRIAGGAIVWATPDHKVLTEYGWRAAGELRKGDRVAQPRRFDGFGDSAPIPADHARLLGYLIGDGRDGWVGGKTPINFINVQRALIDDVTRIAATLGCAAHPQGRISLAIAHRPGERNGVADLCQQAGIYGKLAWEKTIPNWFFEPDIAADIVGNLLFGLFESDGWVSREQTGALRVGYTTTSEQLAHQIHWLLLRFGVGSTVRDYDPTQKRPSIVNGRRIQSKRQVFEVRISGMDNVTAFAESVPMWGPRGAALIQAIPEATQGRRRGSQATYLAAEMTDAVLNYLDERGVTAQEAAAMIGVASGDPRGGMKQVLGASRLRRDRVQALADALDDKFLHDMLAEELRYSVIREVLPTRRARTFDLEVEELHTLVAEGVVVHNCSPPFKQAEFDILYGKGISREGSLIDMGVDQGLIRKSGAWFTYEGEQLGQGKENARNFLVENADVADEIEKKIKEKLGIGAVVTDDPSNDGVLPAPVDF
# [6] = tested on: Streptococcus sp. 'group A'; experiment: Streptococcus pyogenes SK(-)GAS viability under kanamycin – luminescence, BacTiterGlo, confirmation, counter-screen for streptokinase expression inhibitor project, dose response (AID 1900); format: functional, organism-based
# [7] = Trypanosoma cruzi growth suppression in host cells – NIH3T3 host cells, beta-gal luminescence, confirmation (AID 2044); format: functional, cell-based;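 further: intracellular parasites grown in NIH/3T3 mouse fibroblasts as host cells; luminescent beta-galactosidase reporter signal from transgenic T. cruzi replicating inside host cells; inhibitors lower the luminescence signal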
# [8] = NIH3T3 cell viability loss – ATP luminescence, mouse fibroblasts, counter-screen, dose response (AID 2010); format: functional, cell-based;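 further: cells exposed to compound for about 90 hours before reading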
# Streptococcus = experiment: GAS UMAA2166 growth inhibition – luminescence, BacTiterGlo, counter-screen for streptokinase expression inhibitor project, dose response (AID 1915); format: functional, organism-based;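 further: potency for reduction of bacterial viability or growth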
# INS1 = experiment: INS-1E survival protection against cytokine death – cell-based, luminescence, retest, dose response (AID 449756); format: functional; details: Rattus norvegicus;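 further: cell death triggered by IL-1 beta plus TNF-alpha plus IFN-gamma mixture; protective hits raise ATP signal compared with cytokine alone wells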
# CHO-K1 = experiment: (§1) Counterscreen for antagonists of the orexin 1 receptor (OX1R; HCRTR1): Homogeneous time resolved fluorescence (HTRF)-based cell-based dose response assay to identify antagonists of the parental CHO-K1 cell line. [Related pubchem assays (depositor defined):AID434989, AID435008, AID463079, AID485270, AID492963, AID492964, AID492965, AID493232, AID504699, AID504701]; format: functional; details: Cricetulus griseus
# [9] = as §1, with “Fluorescence-based” for “Homogeneous time resolved fluorescence (HTRF)-based”, “cell-based high throughput” for “cell-based”, “CHO” for “CHO-K1”; format: functional
# [10] = target: T4, Orexin/Hypocretin receptor type 1 (Homo sapiens, UniProt O43613); experiment: Homogeneous Time Resolved Fluorescence (HTRF)-based cell-based high throughput dose response assay for antagonists of the orexin 1 receptor (OX1R; HCRTR1). [Related pubchem assays (depositor defined):AID434989, AID435008, AID463079, AID485270, AID492963, AID492964, AID492965, AID493232, AID504717, AID504718]; format: functional
# T4 sequence (O43613 whole entry): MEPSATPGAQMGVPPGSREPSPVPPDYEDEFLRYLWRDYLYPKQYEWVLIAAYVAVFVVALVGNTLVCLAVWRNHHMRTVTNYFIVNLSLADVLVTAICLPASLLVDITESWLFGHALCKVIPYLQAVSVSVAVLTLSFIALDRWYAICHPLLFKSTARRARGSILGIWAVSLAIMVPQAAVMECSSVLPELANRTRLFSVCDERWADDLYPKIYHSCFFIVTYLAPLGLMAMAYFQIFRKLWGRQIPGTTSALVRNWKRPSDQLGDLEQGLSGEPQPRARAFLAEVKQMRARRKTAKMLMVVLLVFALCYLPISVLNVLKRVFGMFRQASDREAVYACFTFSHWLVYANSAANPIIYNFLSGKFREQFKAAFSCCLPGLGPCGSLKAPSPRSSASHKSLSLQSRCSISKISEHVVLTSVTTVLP
# [11] = target: T4, Orexin/Hypocretin receptor type 1; experiment: Fluorescence-based cell-based high throughput dose response assay for antagonists of the orexin 1 receptor (OX1R; HCRTR1). [Related pubchem assays (depositor defined):AID434989, AID435008, AID463079, AID485270, AID492963, AID492964, AID492965, AID493232, AID504717, AID504718]; format: functional
# BJ [12] = experiment: BJ-TERT fibroblast viability loss – cell-based, RAS-independent, luminescence, dose response (AID 1933); format: functional; details: Homo sapiens
# BJ [13] = experiment: cells; format: functional, cell-based; details: Homo sapiens
# BJ [14] = experiment: BJ-TERT-LT-ST fibroblast viability loss – cell-based, RAS-independent, luminescence, dose response (AID 1935); format: functional; details: Homo sapiens;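 further: BJ fibroblasts immortalized with TERT plus LT and ST oncogenes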
# [15] = DRD fibroblast viability loss – cell-based, non-viral oncogenic, luminescence, dose response (AID 1934); format: functional; details: Homo sapiens
# [16] = HEK-293T viability loss after treatment – luminescence, T-cell screen hits, cytotoxicity control for TCR NF-kB inhibitor project, dose response (AID 489026); format: functional, cell-based;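 further: cells exposed to compound about 14 hours before the viability readout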
# Protein skinhead-1 = target: T5, Protein skinhead-1 (Caenorhabditis elegans, UniProt P34707); format: functional
# T5 sequence (P34707 whole entry): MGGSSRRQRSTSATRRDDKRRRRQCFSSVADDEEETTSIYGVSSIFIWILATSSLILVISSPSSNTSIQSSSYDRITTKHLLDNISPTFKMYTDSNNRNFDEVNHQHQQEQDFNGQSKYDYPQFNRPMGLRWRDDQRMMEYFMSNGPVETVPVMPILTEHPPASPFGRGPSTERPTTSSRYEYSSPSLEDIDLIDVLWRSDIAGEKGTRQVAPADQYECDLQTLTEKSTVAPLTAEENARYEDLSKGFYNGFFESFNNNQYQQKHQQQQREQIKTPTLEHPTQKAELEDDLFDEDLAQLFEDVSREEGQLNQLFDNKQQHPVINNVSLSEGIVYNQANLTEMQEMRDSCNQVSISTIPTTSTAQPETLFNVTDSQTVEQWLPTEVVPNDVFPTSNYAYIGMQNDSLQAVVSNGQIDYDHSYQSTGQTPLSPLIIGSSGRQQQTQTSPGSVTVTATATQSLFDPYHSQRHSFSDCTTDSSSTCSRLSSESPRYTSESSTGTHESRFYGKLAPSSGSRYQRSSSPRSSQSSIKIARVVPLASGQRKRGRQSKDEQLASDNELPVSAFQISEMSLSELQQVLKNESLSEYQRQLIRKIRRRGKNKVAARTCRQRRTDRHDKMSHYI
# [17] = target: Glyceraldehyde-3-phosphate dehydrogenase (Homo sapiens, UniProt P04406)
# 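Wherever CC50 is given: cells exposed to compound for 72 hours before luminescence readout.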
# Chain of Alkaline phosphatase, placental type (P05187 whole entry): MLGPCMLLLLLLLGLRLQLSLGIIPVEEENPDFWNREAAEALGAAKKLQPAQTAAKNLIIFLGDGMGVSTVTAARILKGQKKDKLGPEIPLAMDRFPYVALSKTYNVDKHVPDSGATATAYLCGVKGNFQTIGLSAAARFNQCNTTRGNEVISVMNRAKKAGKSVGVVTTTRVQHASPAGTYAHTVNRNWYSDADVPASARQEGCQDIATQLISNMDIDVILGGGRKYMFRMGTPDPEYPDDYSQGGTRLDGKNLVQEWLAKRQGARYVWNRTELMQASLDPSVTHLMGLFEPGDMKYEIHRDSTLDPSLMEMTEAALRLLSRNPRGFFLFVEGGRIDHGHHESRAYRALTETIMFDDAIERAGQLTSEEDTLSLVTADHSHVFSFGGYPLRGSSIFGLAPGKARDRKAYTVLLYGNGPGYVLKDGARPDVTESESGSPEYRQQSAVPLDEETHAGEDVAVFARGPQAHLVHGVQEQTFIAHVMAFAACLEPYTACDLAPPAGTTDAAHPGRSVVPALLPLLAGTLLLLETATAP
# Chain of Glyceraldehyde-3-phosphate dehydrogenase (P04406 whole entry): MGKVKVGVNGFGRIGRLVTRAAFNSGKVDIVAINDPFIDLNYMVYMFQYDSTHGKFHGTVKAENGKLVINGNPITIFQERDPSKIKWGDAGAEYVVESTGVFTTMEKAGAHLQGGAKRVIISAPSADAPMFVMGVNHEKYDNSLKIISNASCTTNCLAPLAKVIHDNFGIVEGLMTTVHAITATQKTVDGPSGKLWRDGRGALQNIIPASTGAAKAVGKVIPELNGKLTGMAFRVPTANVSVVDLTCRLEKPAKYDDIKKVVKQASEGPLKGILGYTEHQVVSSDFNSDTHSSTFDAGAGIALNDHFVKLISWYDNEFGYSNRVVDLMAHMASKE
smiles,measurement,setting,value
O=C(Cn1cnnn1)c1ccc(O)c(O)c1,IC50,[1],16.4 µM (active)
same,IC50,[2],> 100 µM (inactive)
CC1(C)N=C(SCC(=O)Nc2ccc(Cl)cc2)C(c2ccc(Cl)cc2)=N1,CC50,[3],> 40 µM (active)
same,AC50,[4],3.03 µM (active)
same,AC50,[5],11.3 µM (active)
same,EC50,Protein RecA,4.7 µM (active)
O=C(NC(N=C(S)Nc1ccc(Cl)cc1Cl)C(Cl)(Cl)Cl)c1cccc([N+](=O)[O-])c1 (stereo not given),EC50,[6],1.37 µM (active)
same,EC50,[7],1.14 µM (active)
same,EC50,[8],8.05 µM (active)
same,EC50,Streptococcus,4.8 µM (active)
same,CC50,[3],11 µM (active)
same,AC50,INS1,6.08 µM (active)
CCOC(=O)C1=C(COC(=O)c2ccc3ccccc3c2O)NC(=O)NC1C (stereo not given),IC50,CHO-K1,33.6 µM (inactive)
same,IC50,[9],37.2 µM (inactive)
same,IC50,[10],1.62 µM (active)
same,IC50,[11],2.35 µM (active)
O=C(c1ccc(Br)cc1)c1cc([N+](=O)[O-])ccc1N1CCOCC1,EC50,BJ [12],7.48 µM (active)
same,EC50,BJ [13],14.8 µM (active)
same,EC50,BJ [14],2.91 µM (inconclusive)
same,EC50,[15],2.55 µM (active)
same,IC50,[16],> 80 µM (inactive)
same,IC50,Protein skinhead-1,44.7 µM (active)
O=[N+]([O-])c1ccc(-c2n[nH]c(-c3ccccc3)n2)cc1,IC50,[17],> 100 µM (not active)
same,IC50,[1],> 100 µM (inactive)
same,IC50,[2],> 100 µM (inactive)
